One test has as its target T1, human NTPDase8 (Homo sapiens, UniProt Q5MY95).
T1 sequence (Q5MY95 1-495): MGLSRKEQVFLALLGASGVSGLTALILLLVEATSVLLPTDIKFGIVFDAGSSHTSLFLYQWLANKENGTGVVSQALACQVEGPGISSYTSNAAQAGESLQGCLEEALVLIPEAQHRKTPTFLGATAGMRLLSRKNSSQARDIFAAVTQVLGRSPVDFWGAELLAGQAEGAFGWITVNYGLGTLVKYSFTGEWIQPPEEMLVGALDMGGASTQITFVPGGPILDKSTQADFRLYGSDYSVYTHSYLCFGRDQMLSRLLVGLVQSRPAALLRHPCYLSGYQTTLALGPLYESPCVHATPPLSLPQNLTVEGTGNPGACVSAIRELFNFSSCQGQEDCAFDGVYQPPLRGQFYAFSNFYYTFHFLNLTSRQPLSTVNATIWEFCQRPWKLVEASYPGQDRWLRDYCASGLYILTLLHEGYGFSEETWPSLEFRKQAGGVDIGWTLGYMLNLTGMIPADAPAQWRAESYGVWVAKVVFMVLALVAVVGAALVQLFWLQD
As to the kind of experiment: NTPDase inhibition assay by capillary electrophoresis (CE), NTPDase8. Type of test: biochemical. The settings on record: for inhibition at 1000 µM: human NTPDase8, 1 mM compound, ATP 320 μM; for Ki: read-out: NTPDase8 Ki [μM] ± SEM. The protocol:
(§1) The applied enzyme inhibition assay has been described (Iqbal J, Vollmayer P, Braun N, Zimmermann H, Müller C E. A capillary electrophoresis method for the characterization of ecto-nucleoside triphosphate diphosphohydrolases (NTPDases) and the analysis of inhibitors by in-capillary enzymatic microreaction. Purinergic Signalling 2005, 1, 349-358).
(§2) A. CE instrumentation: All experiments were carried out using a P/ACE MDQ capillary electrophoresis system (Beckman Instruments, Fullerton, Calif., USA) equipped with a UV detection system coupled with a diode-array detector (DAD). Data collection and peak area analysis were performed by the P/ACE MDQ software 32 KARAT obtained from Beckman Coulter. The capillary temperature was kept constant at 25° C. The temperature of the sample storing unit was also adjusted to 25° C. The electrophoretic separations were carried out using an eCAP polyacrylamide-coated fused-silica capillary [(30 cm (20 cm effective length)×50 μm internal diameter (I.D.)×360 μm outside diameter (O.D.), obtained from CS-Chromatographie (Langerwehe, Germany)]. The separation was performed using an applied current of −60 μA and a data acquisition rate of 8 Hz. Analytes were detected using direct UV absorbance at 210 nm. The capillary was conditioned by rinsing with water for 2 min and subsequently with buffer (phosphate 50 mM, pH 6.5) for 1 min. Sample injections were made at the cathodic side of the capillary.
(§3) B. NTPDase inhibition assay by capillary electrophoresis: Enzyme inhibition assays were carried out at 37° C. in a final volume of 100 μl. The reaction mixture contained 320 μM of ATP (substrate) in reaction buffer. The reaction buffer contained 140 mM NaCl, 5 mM KCl, 1 mM MgCl2, 2 mM CaCl2, and 10 mM Hepes, pH 7.4.
(§4) Different concentrations of inhibitors dissolved in DMSO or water (10 μl) were added and the reaction was initiated by the addition of 10 μl of the appropriately diluted recombinant or native human or rat NTPDase enzyme. […] The mixture (final volume 100 μl) was incubated for 15 min and terminated by heating at 99° C. for 4 min. Aliquots of the reaction mixture (50 μl) were then transferred to mini-CE vials and injected into the CE instrument under the conditions described above. 20 μM of UMP was used as internal standard. Inhibition of NTPDase was tested over a range of 6 to 8 concentrations of test compound spanning 3 orders of magnitude to determine K1 values. Each analysis was repeated two times (in triplicates) in two separate experiments. The Cheng-Prusoff equation was used to calculate the K1 values from the IC50 values, determined by the non-linear curve fitting program PRISM® 3.0 (GraphPad, San Diego, Calif., USA). In table 1K, values of selected compounds as inhibitors of human NTPDases are given.

For a further test, the target named is hP2Y12 (Homo sapiens, UniProt Q9H244). Description: Inhibition of [3H]PSB-0413 binding at hP2Y12. The settings on record: mean ± SEM, read-out: hP2Y12 % Inhibition of [^3H]PSB-0413 Binding at 10 μM, n = 3. On the procedure: In table 2 inhibition data of selected examples at human P2Y receptor subtypes were collected. It can be seen that no compound was identified that inhibited P2Y receptors at high concentrations of 100 μM and 10 μM, respectively.
hP2Y12, sequence (Q9H244 whole entry): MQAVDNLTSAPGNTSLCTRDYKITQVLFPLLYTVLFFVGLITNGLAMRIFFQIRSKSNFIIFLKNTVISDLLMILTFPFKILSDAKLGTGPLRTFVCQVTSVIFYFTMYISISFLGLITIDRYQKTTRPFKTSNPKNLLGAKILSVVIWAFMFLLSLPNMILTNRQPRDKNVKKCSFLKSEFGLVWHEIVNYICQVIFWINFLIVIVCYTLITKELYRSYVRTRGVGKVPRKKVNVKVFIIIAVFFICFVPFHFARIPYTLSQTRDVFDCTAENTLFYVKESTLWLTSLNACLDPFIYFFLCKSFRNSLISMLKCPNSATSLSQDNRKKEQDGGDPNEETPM

The next test concerns the target T2, human NTPDase2 (Homo sapiens, UniProt Q9Y5L3).
T2 sequence (Q9Y5L3 1-495): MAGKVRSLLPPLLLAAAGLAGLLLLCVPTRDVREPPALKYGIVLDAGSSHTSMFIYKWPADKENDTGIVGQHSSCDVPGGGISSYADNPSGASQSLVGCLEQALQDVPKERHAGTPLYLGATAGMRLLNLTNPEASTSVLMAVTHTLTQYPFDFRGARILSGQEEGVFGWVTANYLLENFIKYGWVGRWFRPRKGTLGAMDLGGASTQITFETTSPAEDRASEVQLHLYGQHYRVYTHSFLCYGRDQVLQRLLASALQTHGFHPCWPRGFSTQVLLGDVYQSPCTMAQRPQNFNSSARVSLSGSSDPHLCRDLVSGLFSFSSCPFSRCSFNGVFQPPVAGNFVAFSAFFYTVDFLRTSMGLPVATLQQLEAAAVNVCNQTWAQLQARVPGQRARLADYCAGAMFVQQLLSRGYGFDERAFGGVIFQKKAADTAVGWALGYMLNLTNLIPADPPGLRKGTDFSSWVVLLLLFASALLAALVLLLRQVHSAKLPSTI
Description: NTPDase inhibition assay by capillary electrophoresis (CE), NTPDase2. Type of test: biochemical. The settings on record: for inhibition at 1000 µM: read-out: NTPDase2 inhibition (%) at 1 mM.

Another test deals with T3, human NTPDase3 (Homo sapiens, UniProt O75355).
T3 sequence (O75355 1-529): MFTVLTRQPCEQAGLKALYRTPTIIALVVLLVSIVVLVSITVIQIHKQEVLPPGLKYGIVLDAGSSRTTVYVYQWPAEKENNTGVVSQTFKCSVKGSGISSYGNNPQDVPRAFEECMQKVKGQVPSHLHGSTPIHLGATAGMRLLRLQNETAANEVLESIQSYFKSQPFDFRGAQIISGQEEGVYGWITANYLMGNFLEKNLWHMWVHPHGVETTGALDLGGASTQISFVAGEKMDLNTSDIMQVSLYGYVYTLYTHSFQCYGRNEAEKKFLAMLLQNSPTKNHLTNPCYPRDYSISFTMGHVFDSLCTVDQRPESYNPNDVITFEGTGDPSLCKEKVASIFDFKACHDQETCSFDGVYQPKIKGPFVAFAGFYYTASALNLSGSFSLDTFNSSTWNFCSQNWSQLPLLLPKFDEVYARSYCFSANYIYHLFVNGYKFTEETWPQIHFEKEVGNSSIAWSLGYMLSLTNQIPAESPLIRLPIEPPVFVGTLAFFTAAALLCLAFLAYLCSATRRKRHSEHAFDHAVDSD
As to the kind of experiment: NTPDase inhibition assay by capillary electrophoresis (CE), NTPDase3. Type of test: biochemical. The settings on record: ATP 320 μM; for inhibition at 1000 µM: 1 mM compound; for Ki: CE method, Km 75 μM, read-out: NTPDase3 Ki [μM] ± SEM. The protocol: as §1, §2, §3, §4

Another test deals with T4, human NTPDase1 (Homo sapiens, UniProt P49961).
T4 sequence (P49961 1-510): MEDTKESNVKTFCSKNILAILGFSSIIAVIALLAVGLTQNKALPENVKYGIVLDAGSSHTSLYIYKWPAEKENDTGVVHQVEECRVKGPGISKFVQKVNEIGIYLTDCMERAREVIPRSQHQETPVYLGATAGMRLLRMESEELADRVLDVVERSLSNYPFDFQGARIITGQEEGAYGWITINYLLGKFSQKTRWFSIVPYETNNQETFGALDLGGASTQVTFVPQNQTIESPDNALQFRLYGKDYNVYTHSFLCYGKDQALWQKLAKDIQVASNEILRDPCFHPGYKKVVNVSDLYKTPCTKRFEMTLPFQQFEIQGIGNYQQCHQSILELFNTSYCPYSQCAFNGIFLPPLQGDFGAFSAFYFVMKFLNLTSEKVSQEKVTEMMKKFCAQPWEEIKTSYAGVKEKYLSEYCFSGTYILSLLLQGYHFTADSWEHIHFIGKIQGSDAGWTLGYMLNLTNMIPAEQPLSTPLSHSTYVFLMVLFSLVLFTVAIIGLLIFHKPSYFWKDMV
As to the kind of experiment: NTPDase inhibition assay by capillary electrophoresis (CE), NTPDase1. Type of test: biochemical. The settings on record: ATP 320 μM; for inhibition at 1000 µM: 1 mM compound; for Ki: CE method, Km 17 μM, read-out: NTPDase1 Ki [μM] ± SEM. On the procedure: as §1, §2, §3, §4

The next test addresses rP2Y6 (Rattus norvegicus, UniProt Q63371). As to the kind of experiment: Inhibition of UDP binding at rP2Y6. The settings on record: read-out: rP2Y6 % inhibition of UDP binding at 100 μM, n = 3, mean ± SEM.
[1] abbreviates: human NTPDase2, CE method, ATP 320 μM, Km 70 μM, read-out: NTPDase2 Ki [μM] ± SEM.

Consider 7 molecules from patent US20100204182A1, “ECTONUCLEOTIDASE INHIBITORS” (RHEINISCHE FRIEDRICH-WILHELMS-UNIVERSITAT BONN, priority 2006, published 2010).

Like-named read-outs stand apart in the source and are kept apart here.

rP2Y6, sequence (Q63371 whole entry): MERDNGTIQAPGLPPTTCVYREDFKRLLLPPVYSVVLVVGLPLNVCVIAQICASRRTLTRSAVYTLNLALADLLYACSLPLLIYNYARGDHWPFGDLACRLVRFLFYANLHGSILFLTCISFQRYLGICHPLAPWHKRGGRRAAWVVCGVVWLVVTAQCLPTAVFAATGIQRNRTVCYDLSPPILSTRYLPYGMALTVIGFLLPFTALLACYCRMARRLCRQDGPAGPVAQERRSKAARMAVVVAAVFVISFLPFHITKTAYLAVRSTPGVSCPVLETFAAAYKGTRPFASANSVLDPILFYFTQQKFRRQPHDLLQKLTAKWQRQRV

One may read the inhibition as the change of the read-out against control, counted positive when it falls. By Ki is commonly meant a dissociation constant, usually derived from enzyme kinetics or from competition with a known ligand. With `CCOP(=O)(Cc1ccc(NC(=O)CNC(=O)[C@H]2O[C@@H](n3cnc4c(N)ncnc43)C(O)C2O)cc1)OCC` (stereo in doubt) [CC1, 4-[2-((2S,3R,4S,5R)-5-(6-Amino-9H-purin-9-yl)-3,4-dihydroxy-tetrahydro-furane-2-carboxamido)ethaneamido]benzylphosphonic acid diethylester], the inhibition at 1000 µM on human NTPDase8, on human NTPDase2, on human NTPDase3 and at human NTPDase1 was 0% throughout. The inhibition constant Ki on human NTPDase8 is more than 100 µM; on human NTPDase2 it was more than 200 µM; at human NTPDase3, more than 200 µM; at human NTPDase1, more than 50 µM. At hP2Y12, the inhibition at 10 µM is -4 ± 6%.
Consider `CCOP(=O)(Cc1ccc(NC(=O)CCNC(=O)[C@H]2O[C@@H](n3cnc4c(N)ncnc43)C(O)C2O)cc1)OCC` (stereo in doubt) [CC2, 4-[3-((2S,3R,4S,5R)-5-(6-Amino-9H-purin-9-yl)-3,4-dihydroxy-tetrahydro-furane-2-carboxamido)propaneamido]benzylphosphonic acid diethylester], for which the Ki is 255 ± 25.3 µM at human NTPDase8, 1440 ± 64 µM on human NTPDase2 (setting [1]), more than 200 µM at human NTPDase3 and 154 ± 37 µM on human NTPDase1. Moreover, at hP2Y12, the inhibition at 10 µM was found to be 1 ± 6%. For the same molecule, the inhibition at 1000 µM at human NTPDase3 was 0%.
For the molecule `CCOP(=O)(Cc1ccc(NC(=O)CCCNC(=O)[C@H]2O[C@@H](n3cnc4c(N)ncnc43)C(O)C2O)cc1)OCC` (stereo in doubt) [CC3, 4-[4-((2S,3R,4S,5R)-5-(6-Amino-9H-purin-9-yl)-3,4-dihydroxy-tetrahydro-furane-2-carboxamido)butaneamido]benzylphosphonic acid diethylester], the inhibition at 1000 µM against human NTPDase8 and at human NTPDase3 was 0% in each case. In addition, the inhibition constant Ki was more than 100 µM on human NTPDase8, 213 ± 34 µM at human NTPDase2 (setting [1]), more than 200 µM at human NTPDase3 and 161 ± 24 µM on human NTPDase1. For the same molecule, the inhibition at 10 µM at hP2Y12 came out at 5 ± 1%.
With `CCOP(=O)(OCC)C(NC(=O)CCNC(=O)[C@H]1O[C@@H](n2cnc3c(N)ncnc32)C(O)C1O)P(=O)(OCC)OCC` (stereo in doubt) [CC4, 3-[(2S,3R,4S,5R)-5-(6-Amino-9H-purin-9-yl)-3,4-dihydroxy-tetrahydrofurane-2-carboxamido]propaneamidomethylenediphosphonic acid tetraethylester], at human NTPDase2, the inhibition constant Ki was more than 200 µM and the inhibition at 1000 µM turned out to be 0%. Further, on human NTPDase1, the inhibition at 1000 µM worked out at 0% and the Ki is more than 50 µM. At rP2Y6, the inhibition at 100 µM was found to be 5 ± 8%.
For `CCOP(=O)(OCC)C(NC(=O)CCCNC(=O)[C@H]1O[C@@H](n2cnc3c(N)ncnc32)C(O)C1O)P(=O)(OCC)OCC` (stereo in doubt) [CC5, 4-[(2S,3R,4S,5R)-5-(6-Amino-9H-purin-9-yl)-3,4-dihydroxy-tetrahydrofurane-2-carboxamido]butaneamidomethylenediphosphonic acid tetraethylester], at human NTPDase2, the inhibitory constant (Ki) was more than 200 µM and the inhibition at 1000 µM came out at 0%. Also, on human NTPDase1, the inhibition at 1000 µM was found to be 0% and the Ki is more than 50 µM. For the same molecule, the inhibition at 100 µM at rP2Y6 was -5 ± 2%.
For `CCOP(=O)(Cc1ccc(NC(=O)[C@H]2O[C@@H](n3ccc(=O)[nH]c3=O)C(O)C2O)cc1)OCC` (stereo in doubt) [Compound 1, 4-[(2S,3R,4S,5R)-5-(2,4-Dioxo-3,4-dihydropyrimidin-1(2H)-yl)-3,4-dihydroxy-tetrahydrofurane-2-carboxamido]benzylphosphonic acid diethylester], the affinity on human NTPDase2, expressed as Ki, was 117 ± 15 µM. The inhibition at 100 µM on rP2Y6 is -12 ± 3%.
Turning to `CCOP(=O)(CC(=O)OCCNC(=O)CNC(=O)[C@H]1O[C@@H](n2ccc(=O)[nH]c2=O)[C@@H](O)[C@H]1O)OCC` [Compound 9, 2-[(2S,3R,4S,5R)-5-(2,4-Dioxo-3,4-dihydropyrimidin-1(2H)-yl)-3,4-dihydroxy-tetrahydro-furane-2-carboxamido]ethaneamido-ethyloxycarbonyl methylenephosphonic acid diethylester], the “NTPDase2 inhibition (%) at 1 mM” value on human NTPDase2 (human NTPDase2, 1 mM compound, ATP 320 μM) was found to be 54%. In addition, at human NTPDase2 (setting [1]), the Ki is approximately 165 µM.
